Laboratory results reported in PubChem BioAssay (NCI).
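Results reflect a 48-hour exposure of cells in 96-well plates to compound at five concentrations. Here, GI50 denotes the concentration required for 50% inhibition of growth. Definition used: TGI = concentration required for complete inhibition of growth.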

What was measured:
Experiment in all cases: NCI tumour cell line growth inhibition, 48 h
HCT-116 colon = system: HCT-116 colon
SK-MEL-28 melanoma = system: SK-MEL-28 melanoma
LXFL 529 NSCLC = system: LXFL 529 NSCLC
786-0 renal = system: 786-0 renal
COLO 205 colon = system: COLO 205 colon
K-562 leukemia = system: K-562 leukemia
M19-MEL melanoma = system: M19-MEL melanoma
SR leukemia = system: SR leukemia
HS 578T breast = system: HS 578T breast
BT-549 breast = system: BT-549 breast

Structure (SMILES) | TGI (HCT-116 colon) [µM] | TGI (SK-MEL-28 melanoma) [µM] | TGI (LXFL 529 NSCLC) [µM] | TGI (786-0 renal) [µM] | TGI (COLO 205 colon) [µM] | TGI (K-562 leukemia) [µM] | TGI (M19-MEL melanoma) [µM] | TGI (SR leukemia) [µM] | GI50 (786-0 renal) [µM] | GI50 (HCT-116 colon) [µM] | GI50 (SK-MEL-28 melanoma) [µM] | GI50 (HS 578T breast) [µM] | TGI (HS 578T breast) [µM] | GI50 (COLO 205 colon) [µM] | GI50 (SR leukemia) [µM] | GI50 (BT-549 breast) [µM] | TGI (BT-549 breast) [µM] | GI50 (K-562 leukemia) [µM]
CCCNC(=O)C1C(=O)C(=O)N(CCC)C1=O (stereo unspecified) | > 100 | > 100 | > 100 | > 100 | > 100 | > 100 | > 100 |  |  |  |  |  |  |  |  |  |  | 
CCOC(=O)C1=C(Nc2ccc(Cl)cc2Cl)OCC1=O | > 100 | > 100 | > 100 | > 100 | > 100 | > 100 | > 100 | > 100 |  |  |  |  |  |  |  |  |  | 
CCC(=O)c1c(NOC2OCC(OC(C)=O)C(OC(C)=O)C2OC(C)=O)nc(OC)n(C)c1=O (stereo unspecified) | > 100 | > 100 | > 100 | > 100 | > 100 | > 100 | > 100 | > 100 |  |  |  |  |  |  |  |  |  | 
N/N=C1\C(=O)N(C2CCCCCC2)C(=O)C1C(=O)NC1CCCCCC1 (stereo unspecified) |  | > 10 | 78.3 | > 100 | > 100 | > 100 | > 100 |  |  |  |  |  |  |  |  |  |  | 
CCNC(=O)COc1ccc(Br)cc1Br | > 100 | > 100 | > 100 | > 100 | > 100 | > 100 | > 100 | > 100 |  |  |  |  |  |  |  |  |  | 
O=C(CCC(=O)Nc1ccc(Cl)c(Cl)c1)CC(=O)c1ccc(Br)cc1 | > 100 | > 100 | > 100 | > 100 | > 100 | > 100 | > 100 |  |  |  |  |  |  |  |  |  |  | 
CC(=O)N/N=C1\CC(C)(C)C2CCC1C2 (stereo unspecified) | > 100 | > 100 | > 100 | > 100 | > 100 | > 100 | > 100 |  |  |  |  |  |  |  |  |  |  | 
COC/C=C\COC | > 100 | > 100 | > 100 | > 100 | > 100 | > 100 | > 100 |  |  |  |  |  |  |  |  |  |  | 
CC1=CC(=O)CC2(C)CC[C@@H]3C[C@]12OC3(C)C (stereo partly specified) | > 100 | > 100 | > 100 | > 100 | > 100 | > 100 | > 100 | > 100 |  |  |  |  |  |  |  |  |  | 
C#Cc1cccc(N2C(=O)c3c(c(-c4ccccc4)c(-c4ccc(Cc5ccc(-c6c(-c7ccccc7)c7c(c(-c8ccccc8)c6-c6ccccc6)C(=O)N(c6cccc(C#C)c6)C7=O)cc5)cc4)c(-c4ccccc4)c3-c3ccccc3)C2=O)c1 | > 100 | > 100 | > 100 | > 100 | 66.5 | > 100 | 52 |  |  |  |  |  |  |  |  |  |  | 
C=C(CC(NC(=O)c1ccc(C(CC)Cc2cnc3nc(N)nc(N)c3n2)cc1)C(=O)O)C(=O)O (stereo unspecified) | > 100 | > 100 | > 100 | 5.17 | > 100 | > 100 |  | > 100 | 0.0257 |  |  |  |  |  |  |  |  | 
CC1=C(C(=O)CC(=O)C(=O)Nc2cc(C)ccc2C)Sc2ccccc2N1 | > 100 | > 100 | > 100 | > 100 |  | > 100 | > 100 |  |  |  |  |  |  |  |  |  |  | 
O=c1/c(=C/c2ccccc2[N+](=O)[O-])sc2nc3ccccc3n12 | > 46.4 | > 46.4 | > 46.4 | > 46.4 | > 46.4 | > 46.4 | > 46.4 | 25 |  |  |  |  |  |  |  |  |  | 
COC12CCC(=O)C=C1c1ccccc1N2C(C)=O (stereo unspecified) | > 100 | > 100 | > 100 | > 100 | > 100 | > 100 | > 100 | > 100 |  |  |  |  |  |  |  |  |  | 
C[C@@H]1C[C@H](C)CN(S(=O)(=O)c2ccc3c(NO)c4ccc(S(=O)(=O)N5C[C@H](C)C[C@H](C)C5)cc4c(N=O)c3c2)C1 | 0.115 | 0.276 |  | 0.309 | 0.342 | 0.12 |  | 0.215 | 0.169 | 0.032 | 0.129 | 0.161 | 0.422 | 0.172 | 0.0367 | 0.175 | 0.34 | 0.0356
O=C(/C=C/C12c3ccccc3C(c3ccccc31)C1C(=O)NC(=O)C12)c1ccc(Cl)cc1Cl (stereo unspecified) | 3.05 | 3.27 |  | 3.22 | 4.24 | 10.9 |  | 4.68 | 1.7 | 1.61 | 1.78 | 2.76 | 7.01 | 2.2 | 1.59 | 1.66 | 3.27 | 2.57
CC(C)c1c(-c2ccccc2)nc2c(C#N)c[nH]n2c1=O | > 100 | > 100 |  | > 100 | 75.2 | > 100 |  | > 100 | 35.1 | 30.5 | 33.5 | 29.7 | 99.6 | 25.1 | 31.1 | 26.2 | > 95.5 | 33.8
C/C=C(/I)CBr | 27.9 | 52.6 | 27.6 | 30.8 | 28.2 | > 100 | 28.6 |  |  |  |  |  |  |  |  |  |  | 
COc1cc(F)c(F)c(Nc2ccc(I)cc2F)c1NS(=O)(=O)C1(C[C@H](O)CO)CC1 | > 10 | 0.448 |  | > 10 | > 2.51 | > 10 |  | > 10 | > 4.02 | 0.201 | 0.029 | > 5.43 | > 10 | 0.0234 | 6.56 | > 5.26 | > 10 | 1.34
CCNc1cc(-c2cccc(OC(F)(F)F)c2)nc2ccc(N3CCCC3)cc12 | 3.43 | 3.74 |  | 3.48 | 4.21 | 4.3 |  | 5 | 1.56 | 1.52 | 1.71 | 1.72 | 3.96 | 1.8 | 1.57 | 2.03 | 4.07 | 1.43
OCc1ccc(N2CCc3cccc(F)c3C2)cc1Cl | 14.6 | > 79.7 |  | 44.7 | 0.175 | 16.5 |  | 58.8 | 16.7 | < 0.0104 | 25.7 | 21.9 | 77.8 | 0.0197 | 19.3 | 16.9 | 36.7 | < 0.0206
